Among the data in article PMC7700572, “Synthesis, Kinetic and Conformational Studies of 2-Substituted-5-(β-D-glucopyranosyl)-pyrimidin-4-ones as Potential Inhibitors of Glycogen Phosphorylase” (Molecules, 2020) are IC50 values, retold here.

The target of the assay is T1, rabbit muscle glycogen phosphorylase (RMGP) (Oryctolagus cuniculus, UniProt P00489).
T1 construct: gene PYGM
T1 sequence (P00489 2-843): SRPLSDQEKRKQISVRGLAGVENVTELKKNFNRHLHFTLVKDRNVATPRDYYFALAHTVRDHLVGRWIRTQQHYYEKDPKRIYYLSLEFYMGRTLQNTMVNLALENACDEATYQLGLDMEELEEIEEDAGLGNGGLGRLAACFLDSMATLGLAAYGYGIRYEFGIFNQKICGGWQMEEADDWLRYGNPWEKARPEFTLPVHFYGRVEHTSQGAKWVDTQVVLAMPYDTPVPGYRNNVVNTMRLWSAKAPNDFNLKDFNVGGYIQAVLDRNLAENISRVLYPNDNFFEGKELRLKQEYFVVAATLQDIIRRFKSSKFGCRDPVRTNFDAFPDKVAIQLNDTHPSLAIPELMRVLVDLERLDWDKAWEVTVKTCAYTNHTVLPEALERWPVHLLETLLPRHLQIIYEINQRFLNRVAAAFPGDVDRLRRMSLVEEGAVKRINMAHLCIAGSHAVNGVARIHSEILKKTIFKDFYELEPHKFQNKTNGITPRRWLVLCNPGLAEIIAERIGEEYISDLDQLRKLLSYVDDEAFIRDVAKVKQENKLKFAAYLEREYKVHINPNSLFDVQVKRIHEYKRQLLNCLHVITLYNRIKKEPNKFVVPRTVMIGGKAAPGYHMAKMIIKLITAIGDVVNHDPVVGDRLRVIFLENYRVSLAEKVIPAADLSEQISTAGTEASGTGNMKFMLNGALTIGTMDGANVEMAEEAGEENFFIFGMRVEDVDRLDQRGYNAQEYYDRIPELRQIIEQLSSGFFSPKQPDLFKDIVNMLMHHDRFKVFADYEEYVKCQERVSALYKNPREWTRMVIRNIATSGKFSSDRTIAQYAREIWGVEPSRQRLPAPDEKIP
The assay can be described thus: enzyme kinetics in the direction of glycogen synthesis, RMGP isolated from rabbit skeletal muscle, […] AMP. It is filed as biochemical.
On to `O=c1[nH]c(Nc2ccc3[nH]c4ccccc4c(=O)c3c2)ncc1[C@@H]1O[C@H](CO)[C@@H](O)[C@H](O)[C@H]1O` [compound 6, 2-[(Acridin-9(10H)-on-2-yl)amino]-5-(β-D-glucopyranosyl)pyrimidin-4(3H)-one], for which the midpoint of inhibition, the IC50, lay at 5.4 ± 0.5 µM.

`O=c1[nH]cc([C@@H]2O[C@H](CO)[C@@H](O)[C@H](O)[C@H]2O)c(=O)[nH]1` [compound 4, 5-(β-D-Glucopyranosyl)pyrimidin-2,4-dione]: half-maximal inhibition (IC50) was put at 88.5 ± 4.3 µM.

Turning to `Nc1ncc([C@@H]2O[C@H](CO)[C@@H](O)[C@H](O)[C@H]2O)c(=O)[nH]1` [compound 5, 2-Amino-5-(β-D-glucopyranosyl)pyrimidin-4(3H)-one], the IC50 is 396 ± 10.8 µM.
